# Reference: patent publication US20050209157A1, “Short bioactive peptides and methods for their use” (priority 2001, published 2005)
# Several values for one entry are separate records, joined by “and”; a condition that tells them apart may be missing. Identical values can stand only once. Like-named read-outs stand apart in the source and are kept apart here. No end group written: not given here.
# What was measured:
# P. aeruginosa H374 [1] = format: cell-based, Pseudomonas aeruginosa; conditions: for MIC P. aeruginosa H374: Table 9, in µg/mL
# [2] = system: Pseudomonas aeruginosa H187; format: cell-based; conditions: in µg/mL
# [3] = system: Pseudomonas aeruginosa 100609; format: cell-based; conditions: Table 9; in µg/mL
# [4] = system: Pseudomonas aeruginosa 105663; format: cell-based; conditions: Table 9; in µg/mL
# [5] = system: Candida glabrata ATCC15126; experiment: Antimicrobial assays II, NCCLS broth microdilution MIC; format: cell-based; conditions: Table 8; in µg/mL
# [6] = system: Pseudomonas aeruginosa ATCC 9027; experiment: Antimicrobial assay I, MIC by OD measurement; format: cell-based; conditions: 37° C. for 24 hours, absorbance 620 nm
# [7] = system: Staphylococcus aureus ATCC 6538; experiment: Antimicrobial assay I, MIC by OD measurement; format: cell-based; conditions: 37° C. for 24 hours, absorbance 620 nm
# [8] = system: yeast (Saccharomyces cerevisiae); experiment: Antimicrobial assay I, yeast assay in RPMI 1640; format: cell-based; conditions: RPMI 1640 media
# S. aureus (MRSA) = format: cell-based, Staphylococcus aureus; conditions: mean of three; 16 to 20 hours at 35° C.
# S. epidermidis C621 = format: cell-based, Staphylococcus epidermidis; conditions: mean of three; 16 to 20 hours at 35° C.
# S. pyogenes M76 = experiment: Antimicrobial assays II, NCCLS broth microdilution MIC; format: cell-based, Streptococcus pyogenes; conditions: mean of three; 16 to 20 hours at 35° C.
# S. pyogenes ATCC19615 = experiment: as above; format: cell-based, Streptococcus pyogenes; conditions: mean of three, in µg/mL
# S. pneumoniae C718 = experiment: as above; format: cell-based, Streptococcus pneumoniae; conditions: mean of three
# S. pneumoniae C719 = experiment: as above; format: cell-based, Streptococcus pneumoniae; conditions: mean of three, in µg/mL
# E. coli UB1005 = format: cell-based, Escherichia coli; conditions: mean of three; 16 to 20 hours at 35° C.; in µg/mL
# S. typhimurium 14028S = format: cell-based, Salmonella typhimurium; conditions: mean of three; 16 to 20 hours at 35° C.; in µg/mL
# BMKC = experiment: Anti-cancer assay, MTT, LD50; format: cell-based; conditions: BMKC cloned melanoma line, 24 hours with peptide
# Source text: (§1) Numbers are LD50 values (μg/mL).
# H1299 = experiment: Anti-cancer assay, MTT, LD50; format: cell-based; conditions: 24 hours with peptide, lung large cell carcinoma
# Source text: as §1
# HeLaS3 = experiment: Anti-cancer assay, MTT, LD50; format: cell-based; conditions: 24 hours with peptide, cervical carcinoma
# Source text: as §1
# MCF7 = experiment: Anti-cancer assay, MTT, LD50; format: cell-based; conditions: MCF7 breast adenocarcinoma line, MTT, 24 hours with peptide
# Source text: as §1
# PC3 = experiment: Anti-cancer assay, MTT, LD50; format: cell-based; conditions: 24 hours with peptide, prostate adenocarcinoma
# Source text: as §1
# SW480 = experiment: Anti-cancer assay, MTT, LD50; format: cell-based; conditions: SW480 colon adenocarcinoma line, 24 hours with peptide
# Source text: as §1
# in vitro [9] = format: cell-based, human; conditions: human, human red blood cells, pH 7, hemolytic assay, concentration at 50% hemolysis, 1 hour at 37° C.; read-out: LD50
# P. aeruginosa H374 [10] = format: cell-based, Pseudomonas aeruginosa; conditions: for FIC Index: 0.5 or less = synergy
# In short: (§2)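 Efflux-mutant strains were tested with two-fold serial dilutions of chloramphenicol or nalidixic acid, alone and with peptide held at ¼ of its own MIC.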
# P. aeruginosa H774 = format: cell-based, Pseudomonas aeruginosa; conditions: P. aeruginosa H744; nalidixic acid + peptide at ¼ MIC; 0.5 or less = synergy
# In short: as §2
# P. aeruginosa = format: cell-based, Pseudomonas aeruginosa; conditions: P. aeruginosa H744; MIC of nalidixic acid with peptide at ¼ MIC
# In short: as §2
# WI38 = conditions: MTT, 24 hours with peptide; normal fibroblast line
# in vitro [11] = conditions: human, WI38 normal lung fibroblast cells, LD50 WI38, WI38 normal lung fibroblast line, MTT, 24 hours with peptide
compound,measurement,setting,value
FAKKLAKKLKKLAKLALAK-NH2 [P41 (23)],MIC P. aeruginosa H374,P. aeruginosa H374 [1],4
same,MIC P. aeruginosa H187,[2]; Table 8,8
same,MIC P. aeruginosa H187,[2]; Table 9,8
same,MIC P. aeruginosa Tb 100609,[3],8
same,MIC P. aeruginosa Tb 105663,[4],8
same,MIC C. glabrata ATCC15126,[5],32
FAKKLKKLAKLAKKL-NH2 [P46],paerug9027 (MIC),[6],5 µg/mL
same,staph6538 (MIC),[7],10 µg/mL
same,yeast (MIC or MFC),[8],50 µg/mL
same,S. aureus (MRSA) MIC,S. aureus (MRSA),64 µg/mL
same,S. epidermidis C621 MIC,S. epidermidis C621,8 µg/mL
same,S. pyogenes M76 MIC,S. pyogenes M76,8 µg/mL
same,S. pyogenes MIC,S. pyogenes ATCC19615,16
same,S. pneumoniae MIC,S. pneumoniae C718,64 µg/mL
same,S. pneumoniae MIC,S. pneumoniae C719,128
same,E. coli UB1005 MIC,E. coli UB1005,8 and 4
same,S. typhimurium 14028S MIC,S. typhimurium 14028S,16 and 8
same,P. aeruginosa H374 MIC,"P. aeruginosa H374 [1]; mean of three, 16 to 20 hours at 35° C.",4 µg/mL
same,LD50 BMKC,BMKC,150 µg/mL
same,H1299 LD50,H1299,290 µg/mL
same,HeLaS3 LD50,HeLaS3,280 µg/mL
same,LD50 MCF7,MCF7,300 µg/mL
same,PC3 LD50,PC3,280 µg/mL
same,LD50 SW480,SW480,160 µg/mL
same,HC50 at 1 h,in vitro [9],900 µg/mL
same,MIC Cm-comb.,P. aeruginosa H374 [10]; MIC of chloramphenicol with peptide at ¼ MIC,8 µg/mL
same,MIC Nal-comb.,P. aeruginosa H374 [10]; MIC of nalidixic acid with peptide at ¼ MIC,2500 µg/mL
same,FIC Index,P. aeruginosa H374 [10]; chloramphenicol + peptide at ¼ MIC,0.75
same,FIC Index,"P. aeruginosa H374 [10]; nalidixic acid + peptide at ¼ MIC, FIC=0.25+MIC comb/MIC alone",0.75
same,FIC Index,P. aeruginosa H774,1.25
same,MIC Nal-comb.,P. aeruginosa,624 µg/mL
same,WI38 LD50,WI38,200 µg/mL
same,CC50 at 24 h,in vitro [11],200 µg/mL
MPKWKVFKKIEKVGRNIRNGIVKAGPAIAVLGEAKALG-NH2 [P12 (5)],MIC P. aeruginosa H374,P. aeruginosa H374 [1],8
same,MIC P. aeruginosa H187,[2]; Table 8,16
same,MIC P. aeruginosa H187,[2]; Table 9,16
same,MIC P. aeruginosa Tb 100609,[3],8
same,MIC P. aeruginosa Tb 105663,[4],8
same,MIC C. glabrata ATCC15126,[5],128
LPKWKVFKKIEKVGRNIRNGIVKAGPAIAVLGEAKALG-NH2 [P306 (150)],MIC P. aeruginosa H374,P. aeruginosa H374 [1],8
same,MIC P. aeruginosa H187,[2]; Table 8,16
same,MIC P. aeruginosa H187,[2]; Table 9,16
same,MIC P. aeruginosa Tb 100609,[3],16
same,MIC P. aeruginosa Tb 105663,[4],32
same,MIC C. glabrata ATCC15126,[5],>128
FAKKLAKKLKKLAKKLAK-OH [P71 (47)],MIC P. aeruginosa H374,P. aeruginosa H374 [1],4
same,MIC P. aeruginosa H187,[2]; Table 8,8
same,MIC P. aeruginosa H187,[2]; Table 9,8
same,MIC P. aeruginosa Tb 100609,[3],16
same,MIC P. aeruginosa Tb 105663,[4],16
same,MIC C. glabrata ATCC15126,[5],32
FAVGLRAIKRALKKLRRGVRKVAKDL-NH2 [P157 (119)],MIC P. aeruginosa H374,P. aeruginosa H374 [1],8
same,MIC P. aeruginosa H187,[2]; Table 8,8
same,MIC P. aeruginosa H187,[2]; Table 9,8
same,MIC P. aeruginosa Tb 100609,[3],16
same,MIC P. aeruginosa Tb 105663,[4],16
same,MIC C. glabrata ATCC15126,[5],64
CC(C)C[C@H](NC(=O)[C@H](C)NC(=O)[C@H](CC(C)C)NC(=O)[C@H](CCCCN)NC(=O)[C@H](C)NC(=O)[C@H](CC(C)C)NC(=O)[C@H](CCCCN)NC(=O)[C@H](CCCCN)NC(=O)[C@H](C)NC(=O)[C@H](CC(C)C)NC(=O)[C@H](CCCCN)NC(=O)[C@H](C)NC(=O)[C@H](CC(C)C)NC(=O)[C@H](CCCCN)NC(=O)[C@H](CCCCN)NC(=O)[C@H](C)NC(=O)[C@@H](N)Cc1ccccc1)C(=O)O [P61 (41)],MIC P. aeruginosa H374,P. aeruginosa H374 [1],4
same,MIC P. aeruginosa H187,[2]; Table 8,8
same,MIC P. aeruginosa H187,[2]; Table 9,8
same,MIC P. aeruginosa Tb 100609,[3],16
same,MIC P. aeruginosa Tb 105663,[4],8
same,MIC C. glabrata ATCC15126,[5],32
CC(C)C[C@H](NC(=O)[C@H](C)NC(=O)[C@H](CC(C)C)NC(=O)[C@H](C)NC(=O)[C@H](CC(C)C)NC(=O)[C@H](CCCCN)NC(=O)[C@H](C)NC(=O)[C@H](CC(C)C)NC(=O)[C@H](CCCCN)NC(=O)[C@H](CCCCN)NC(=O)[C@H](C)NC(=O)[C@H](CC(C)C)NC(=O)[C@H](CCCCN)NC(=O)[C@H](CCCCN)NC(=O)[C@H](CC(C)C)NC(=O)[C@H](CCCCN)NC(=O)[C@H](CCCCN)NC(=O)[C@H](C)NC(=O)[C@H](CC(C)C)NC(=O)[C@H](CCCCN)NC(=O)[C@H](CCCCN)NC(=O)[C@H](C)NC(=O)[C@@H](N)Cc1ccccc1)C(N)=O [P11 (4)],MIC P. aeruginosa H374,P. aeruginosa H374 [1],16
same,MIC P. aeruginosa H187,[2]; Table 9,16
same,MIC P. aeruginosa Tb 100609,[3],16
same,MIC P. aeruginosa Tb 105663,[4],16
